# From ChEMBL document CHEMBL5291721, “A preclinical secondary pharmacology resource illuminates target-adverse drug reaction associations of marketed drugs” (Nat Commun, 2023)
# *1 amine or outer side, *2 acyl side, *3 side chain or, on linkers, in order; H or OH if unused. Where a SMILES comes first, the peptide text is derived from it. Bridges are numbered along the chain shown (N, C = ends). [ ]: non-standard residue; d: D form. The star is where a group is joined. hTyr(3S-OH,4S-OH,3'-OSO3H) = N[C@H](C(=O)O)[C@H](O)[C@@H](O)c1ccc(O)c(OS(=O)(=O)O)c1; Orn(4R-OH,5R-OH) = O=C([C@H](C[C@@H](O)[C@@H](O)N[*:3])N[*:1])[*:2]; Pro(3S-OH,4S-Me) = C[C@H]1CN[C@H](C(=O)O)[C@H]1O; X1 = CCCCCOc1ccc(-c2cc(-c3ccc(C(=O)*)cc3)no2)cc1; Gln(3R-OH) = NC(=O)C[C@@H](O)[C@H](N)C(=O)O; Hyp = O=C(O)[C@@H]1C[C@@H](O)CN1
# Tests used:
# [1] = molecular target: Beta-3 adrenergic receptor (Homo sapiens, UniProt P13945)
# Glucagon receptor = Glucagon receptor (Homo sapiens, UniProt P47871)
# [2] = molecular target: T1, Corticotropin-releasing factor receptor 2 (Homo sapiens, UniProt Q13324)
# T1 sequence (Q13324 whole entry): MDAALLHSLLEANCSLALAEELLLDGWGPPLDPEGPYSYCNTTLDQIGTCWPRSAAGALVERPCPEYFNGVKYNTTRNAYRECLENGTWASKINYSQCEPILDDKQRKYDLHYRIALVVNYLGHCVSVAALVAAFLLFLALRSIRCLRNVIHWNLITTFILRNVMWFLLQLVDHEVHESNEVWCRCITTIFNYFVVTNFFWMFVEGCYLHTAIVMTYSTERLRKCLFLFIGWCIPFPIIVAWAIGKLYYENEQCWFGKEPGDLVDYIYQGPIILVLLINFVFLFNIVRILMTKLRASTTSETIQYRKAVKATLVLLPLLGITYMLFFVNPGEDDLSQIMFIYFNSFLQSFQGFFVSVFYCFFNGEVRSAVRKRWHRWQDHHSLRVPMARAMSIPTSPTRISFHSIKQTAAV
# Melanocortin receptor 4 = Melanocortin receptor 4 (Homo sapiens, UniProt P32245)
# [3] = molecular target: T2, Alpha-1A adrenergic receptor (Homo sapiens, UniProt P35348)
# T2 sequence (P35348 whole entry): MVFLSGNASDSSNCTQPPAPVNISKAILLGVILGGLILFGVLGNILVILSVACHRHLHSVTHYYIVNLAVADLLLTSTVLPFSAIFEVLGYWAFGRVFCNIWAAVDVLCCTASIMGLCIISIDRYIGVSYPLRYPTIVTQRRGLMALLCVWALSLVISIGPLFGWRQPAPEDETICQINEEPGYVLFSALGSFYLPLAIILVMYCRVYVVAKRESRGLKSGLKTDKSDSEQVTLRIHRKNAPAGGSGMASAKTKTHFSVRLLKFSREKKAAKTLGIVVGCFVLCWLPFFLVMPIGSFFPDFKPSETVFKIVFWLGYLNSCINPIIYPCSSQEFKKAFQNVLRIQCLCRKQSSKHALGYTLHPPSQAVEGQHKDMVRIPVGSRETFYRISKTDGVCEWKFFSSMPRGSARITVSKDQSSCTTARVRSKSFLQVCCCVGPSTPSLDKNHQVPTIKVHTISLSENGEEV
# [4] = molecular target: T3, Neuropeptide Y receptor type 2 (Homo sapiens, UniProt P49146)
# T3 sequence (P49146 whole entry): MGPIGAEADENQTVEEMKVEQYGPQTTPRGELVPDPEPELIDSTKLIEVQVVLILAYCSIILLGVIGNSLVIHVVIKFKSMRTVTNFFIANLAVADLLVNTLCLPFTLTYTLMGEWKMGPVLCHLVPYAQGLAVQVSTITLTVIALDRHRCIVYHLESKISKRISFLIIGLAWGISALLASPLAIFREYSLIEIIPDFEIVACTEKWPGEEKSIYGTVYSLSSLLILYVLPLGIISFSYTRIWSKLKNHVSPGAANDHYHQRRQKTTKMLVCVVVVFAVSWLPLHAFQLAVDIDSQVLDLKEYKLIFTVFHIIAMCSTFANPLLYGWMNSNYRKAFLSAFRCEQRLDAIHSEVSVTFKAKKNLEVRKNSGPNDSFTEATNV
# Androgen receptor = molecular target: T4, Androgen receptor (Homo sapiens, UniProt P10275)
# T4 sequence (P10275 whole entry): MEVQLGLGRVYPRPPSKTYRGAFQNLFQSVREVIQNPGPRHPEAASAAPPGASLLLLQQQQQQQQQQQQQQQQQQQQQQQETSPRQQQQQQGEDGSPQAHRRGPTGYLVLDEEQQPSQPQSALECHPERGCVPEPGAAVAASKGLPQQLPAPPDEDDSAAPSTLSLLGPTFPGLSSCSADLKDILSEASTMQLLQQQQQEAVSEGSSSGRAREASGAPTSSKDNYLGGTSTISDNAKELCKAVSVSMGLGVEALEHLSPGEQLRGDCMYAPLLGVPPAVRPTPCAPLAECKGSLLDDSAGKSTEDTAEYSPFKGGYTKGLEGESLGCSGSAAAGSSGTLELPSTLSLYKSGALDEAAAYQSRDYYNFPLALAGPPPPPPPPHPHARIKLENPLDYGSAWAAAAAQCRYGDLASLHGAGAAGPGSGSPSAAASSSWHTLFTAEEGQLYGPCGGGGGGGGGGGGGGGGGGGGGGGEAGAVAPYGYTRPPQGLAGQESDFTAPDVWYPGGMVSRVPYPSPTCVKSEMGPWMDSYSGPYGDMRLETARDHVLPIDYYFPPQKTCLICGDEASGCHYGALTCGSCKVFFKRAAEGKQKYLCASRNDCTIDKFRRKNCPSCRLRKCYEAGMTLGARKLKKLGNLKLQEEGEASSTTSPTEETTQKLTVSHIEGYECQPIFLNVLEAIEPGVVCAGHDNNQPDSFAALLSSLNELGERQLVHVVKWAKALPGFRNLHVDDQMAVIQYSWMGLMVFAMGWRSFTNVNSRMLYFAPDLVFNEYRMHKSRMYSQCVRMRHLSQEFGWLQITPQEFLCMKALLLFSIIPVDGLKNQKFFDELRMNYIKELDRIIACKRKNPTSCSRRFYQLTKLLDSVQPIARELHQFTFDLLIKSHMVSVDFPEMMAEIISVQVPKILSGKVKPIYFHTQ
# [5] = molecular target: Sodium-dependent serotonin transporter (Homo sapiens, UniProt P31645)
# [6] = molecular target: 5-hydroxytryptamine receptor 2A (Homo sapiens, UniProt P28223); type: functional, cell-based
# [7] = molecular target: Muscarinic acetylcholine receptor M3 (Homo sapiens, UniProt P20309)
# Note: assay procedure not described here.
# Melanocortin receptor 4, sequence (P32245 whole entry): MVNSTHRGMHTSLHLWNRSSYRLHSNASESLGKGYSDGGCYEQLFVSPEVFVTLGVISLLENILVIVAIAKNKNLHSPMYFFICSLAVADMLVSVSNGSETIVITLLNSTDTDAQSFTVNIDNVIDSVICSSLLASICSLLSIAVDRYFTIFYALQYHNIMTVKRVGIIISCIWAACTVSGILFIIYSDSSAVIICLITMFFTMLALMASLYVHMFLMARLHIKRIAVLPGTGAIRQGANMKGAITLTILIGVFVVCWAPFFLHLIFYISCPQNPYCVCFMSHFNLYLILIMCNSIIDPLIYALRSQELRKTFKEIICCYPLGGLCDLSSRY
# Muscarinic acetylcholine receptor M3, sequence (P20309 whole entry): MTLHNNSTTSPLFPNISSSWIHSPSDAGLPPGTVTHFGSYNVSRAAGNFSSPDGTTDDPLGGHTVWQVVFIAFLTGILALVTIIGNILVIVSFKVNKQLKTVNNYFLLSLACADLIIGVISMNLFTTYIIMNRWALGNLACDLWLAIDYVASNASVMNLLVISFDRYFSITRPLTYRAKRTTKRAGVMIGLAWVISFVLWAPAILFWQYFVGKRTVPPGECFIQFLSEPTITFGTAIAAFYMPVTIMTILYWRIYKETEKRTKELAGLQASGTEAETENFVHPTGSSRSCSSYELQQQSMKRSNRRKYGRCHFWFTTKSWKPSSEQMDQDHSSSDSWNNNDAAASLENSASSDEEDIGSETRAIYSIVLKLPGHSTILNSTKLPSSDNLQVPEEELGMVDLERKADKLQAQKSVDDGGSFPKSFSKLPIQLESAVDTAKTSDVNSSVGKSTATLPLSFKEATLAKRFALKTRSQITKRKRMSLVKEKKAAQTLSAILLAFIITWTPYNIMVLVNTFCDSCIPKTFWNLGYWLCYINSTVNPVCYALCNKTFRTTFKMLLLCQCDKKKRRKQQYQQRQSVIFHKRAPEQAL
# 5-hydroxytryptamine receptor 2A, sequence (P28223 whole entry): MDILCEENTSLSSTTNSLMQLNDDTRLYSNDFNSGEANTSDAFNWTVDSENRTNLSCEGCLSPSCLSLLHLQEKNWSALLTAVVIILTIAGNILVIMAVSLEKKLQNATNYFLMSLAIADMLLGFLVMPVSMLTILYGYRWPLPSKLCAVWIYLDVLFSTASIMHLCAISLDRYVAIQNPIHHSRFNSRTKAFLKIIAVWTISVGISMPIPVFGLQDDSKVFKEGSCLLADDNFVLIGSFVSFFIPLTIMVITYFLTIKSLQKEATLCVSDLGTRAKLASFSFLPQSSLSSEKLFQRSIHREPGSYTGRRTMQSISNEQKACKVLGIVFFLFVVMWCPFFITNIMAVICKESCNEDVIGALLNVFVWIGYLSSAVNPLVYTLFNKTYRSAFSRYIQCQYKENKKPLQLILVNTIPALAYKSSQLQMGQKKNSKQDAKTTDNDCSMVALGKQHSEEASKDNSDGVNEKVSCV
# Sodium-dependent serotonin transporter, sequence (P31645 whole entry): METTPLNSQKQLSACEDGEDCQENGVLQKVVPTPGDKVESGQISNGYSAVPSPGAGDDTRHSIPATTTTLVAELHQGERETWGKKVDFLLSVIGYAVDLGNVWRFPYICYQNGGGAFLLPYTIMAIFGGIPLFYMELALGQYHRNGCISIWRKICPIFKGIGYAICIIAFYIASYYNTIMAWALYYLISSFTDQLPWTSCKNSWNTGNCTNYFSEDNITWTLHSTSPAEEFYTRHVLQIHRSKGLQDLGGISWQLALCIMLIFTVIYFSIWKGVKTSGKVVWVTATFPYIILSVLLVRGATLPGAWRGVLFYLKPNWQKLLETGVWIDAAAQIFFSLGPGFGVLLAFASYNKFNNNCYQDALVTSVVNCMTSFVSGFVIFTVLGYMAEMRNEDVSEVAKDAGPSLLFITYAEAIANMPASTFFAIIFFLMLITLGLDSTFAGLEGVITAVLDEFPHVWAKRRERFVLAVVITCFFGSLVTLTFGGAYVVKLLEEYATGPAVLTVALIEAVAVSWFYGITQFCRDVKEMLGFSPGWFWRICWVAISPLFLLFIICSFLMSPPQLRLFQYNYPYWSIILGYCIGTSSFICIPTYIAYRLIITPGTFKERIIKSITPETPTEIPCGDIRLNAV
# Glucagon receptor, sequence (P47871 whole entry): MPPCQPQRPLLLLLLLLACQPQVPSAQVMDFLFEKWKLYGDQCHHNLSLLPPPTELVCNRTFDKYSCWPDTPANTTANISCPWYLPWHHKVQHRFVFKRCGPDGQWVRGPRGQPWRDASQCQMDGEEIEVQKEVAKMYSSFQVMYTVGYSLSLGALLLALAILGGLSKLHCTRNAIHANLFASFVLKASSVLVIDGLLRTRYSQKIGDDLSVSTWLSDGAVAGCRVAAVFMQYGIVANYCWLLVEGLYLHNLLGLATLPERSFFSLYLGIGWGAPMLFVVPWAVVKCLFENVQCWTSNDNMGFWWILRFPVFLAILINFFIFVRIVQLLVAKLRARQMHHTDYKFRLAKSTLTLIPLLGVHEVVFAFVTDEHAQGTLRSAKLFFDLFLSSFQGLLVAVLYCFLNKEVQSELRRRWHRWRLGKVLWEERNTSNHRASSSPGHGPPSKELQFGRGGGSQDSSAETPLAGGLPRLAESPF
# Beta-3 adrenergic receptor, sequence (P13945 whole entry): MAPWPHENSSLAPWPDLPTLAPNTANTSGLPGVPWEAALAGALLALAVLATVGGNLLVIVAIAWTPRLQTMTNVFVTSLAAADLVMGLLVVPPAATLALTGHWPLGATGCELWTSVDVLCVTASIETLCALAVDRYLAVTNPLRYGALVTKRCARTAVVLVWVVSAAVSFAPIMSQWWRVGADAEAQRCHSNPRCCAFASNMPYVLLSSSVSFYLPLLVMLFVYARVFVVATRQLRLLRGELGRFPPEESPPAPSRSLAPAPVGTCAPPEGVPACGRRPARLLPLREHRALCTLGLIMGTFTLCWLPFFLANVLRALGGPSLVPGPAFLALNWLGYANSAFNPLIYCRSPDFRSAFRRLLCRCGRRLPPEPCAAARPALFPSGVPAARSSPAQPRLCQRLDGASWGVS
smiles,measurement,setting,value
Cc1cnc(NC(=O)C2=C(O)c3ccccc3S(=O)(=O)N2C)s1 [MELOXICAM],AC50,[1],> 30 µM
same,AC50,Glucagon receptor,> 30 µM
same,AC50,[2],> 30 µM
same,AC50,Melanocortin receptor 4,> 30 µM
same,AC50,[3],> 10 µM
same,AC50,[4],> 30 µM
Cc1cc2c(OCC(O)CNC(C)C)cccc2[nH]1 (configuration not stated) [MEPINDOLOL],AC50,Androgen receptor,> 30 µM
CC(=O)/N=c1/sc(S(N)(=O)=O)nn1C [METHAZOLAMIDE],AC50,[5],> 10 µM
same,AC50,[6],> 10 µM
same,AC50,[7],> 30 µM
same,AC50,Melanocortin receptor 4,> 10 µM
same,AC50,[3],> 10 µM
CC[C@@H](CO)NC(=O)[C@@H]1C=C2c3cccc4[nH]cc(c34)C[C@H]2N(C)C1 [METHYLERGONOVINE],AC50,[3],12 µM
"CCCCCOc1ccc(-c2cc(-c3ccc(C(=O)N[C@H]4C[C@@H](O)[C@@H](O)NC(=O)[C@@H]5[C@@H](O)[C@@H](C)CN5C(=O)[C@H]([C@H](O)CC(N)=O)NC(=O)[C@H]([C@H](O)[C@@H](O)c5ccc(O)c(OS(=O)(=O)O)c5)NC(=O)[C@@H]5C[C@@H](O)CN5C(=O)[C@H]([C@@H](C)O)NC4=O)cc3)no2)cc1 [MICAFUNGIN] (X1-[Orn(4R-OH,5R-OH)]T[Hyp][hTyr(3S-OH,4S-OH,3'-OSO3H)][Gln(3R-OH)][Pro(3S-OH,4S-Me)]; lactam 1-C)",AC50,Androgen receptor,> 30 µM
CCOc1ccc2ccccc2c1C(=O)N[C@@H]1C(=O)N2[C@@H]1SC(C)(C)[C@@H]2C(=O)O [NAFCILLIN],AC50,Androgen receptor,> 30 µM
CC(=O)Oc1ccccc1C(=O)Nc1ncc([N+](=O)[O-])s1 [NITAZOXANIDE],AC50,[5],6.3 µM
same,AC50,[6],15 µM
same,AC50,[7],13 µM
CNCCC=C1c2ccccc2CCc2ccccc21 [NORTRIPTYLINE],AC50,[3],0.114 µM
CN(C)c1cc(CNCC(C)(C)C)c(O)c2c1C[C@H]1C[C@H]3[C@H](N(C)C)C(O)=C(C(N)=O)C(=O)[C@@]3(O)C(O)=C1C2=O [OMADACYCLINE],AC50,[5],11 µM
same,AC50,[6],> 30 µM
same,AC50,[7],> 30 µM
same,AC50,Androgen receptor,> 30 µM
CC(C)COc1ccc(CNC(=O)N(Cc2ccc(F)cc2)C2CCN(C)CC2)cc1 [PIMAVANSERIN],AC50,Androgen receptor,> 30 µM
CC(C)C[C@H](CN)CC(=O)O [PREGABALIN],AC50,[5],> 30 µM
same,AC50,[6],> 30 µM
same,AC50,[7],> 30 µM
same,AC50,[1],> 30 µM
same,AC50,Glucagon receptor,> 30 µM
same,AC50,[2],> 30 µM
same,AC50,Melanocortin receptor 4,> 30 µM
same,AC50,[4],> 30 µM
CC(C)[N+](C)(CCOC(=O)C1c2ccccc2Oc2ccccc21)C(C)C [PROPANTHELINE],AC50,Androgen receptor,> 30 µM
CNC(=O)c1cc(Oc2ccc(NC(=O)Nc3ccc(Cl)c(C(F)(F)F)c3)c(F)c2)ccn1 [REGORAFENIB],AC50,[5],> 30 µM
same,AC50,[6],> 30 µM
same,AC50,Androgen receptor,> 30 µM
CCOc1cc(CC(=O)N[C@@H](CC(C)C)c2ccccc2N2CCCCC2)ccc1C(=O)O [REPAGLINIDE],AC50,[5],> 30 µM
same,AC50,[6],9.4 µM
same,AC50,[7],> 30 µM
CN(C)C(=O)c1nc(CNC(=O)CN)n(-c2ccc(Cl)cc2C(=O)c2ccccc2Cl)n1 [RILMAZAFONE],AC50,Androgen receptor,> 30 µM
CCCN(CCc1cccs1)[C@H]1CCc2c(O)cccc2C1 [ROTIGOTINE],AC50,[5],7.8 µM
same,AC50,[7],> 30 µM
Cn1c(=O)c2[nH]cnc2n(C)c1=O [THEOPHYLLINE],AC50,Glucagon receptor,> 30 µM
same,AC50,[2],> 30 µM
same,AC50,Melanocortin receptor 4,> 30 µM
same,AC50,[3],> 10 µM
same,AC50,[4],> 30 µM
CN1CCN(CCCN2c3ccccc3Sc3ccc(S(=O)(=O)N(C)C)cc32)CC1 [THIOPROPERAZINE],AC50,[6],5.8 µM
same,AC50,[7],18 µM
Cc1cc(CC(=O)O)n(C)c1C(=O)c1ccc(Cl)cc1 [ZOMEPIRAC],AC50,[5],> 30 µM
same,AC50,[6],> 30 µM
same,AC50,[7],> 30 µM
